Laboratory results reported in publication PMC6520522, “In vitro and in vivo Metabolism of a Potent Inhibitor of Soluble Epoxide Hydrolase, 1-(1-Propionylpiperidin-4-yl)-3-(4-(trifluoromethoxy)phenyl)urea” (Frontiers in Pharmacology, 2019).

Tests used:
recombinant human sEH = molecular target: T1, recombinant human sEH (Homo sapiens, UniProt P34913); assay: sEH inhibition potency, CMNPC fluorescent assay; format: biochemical
T1 sequence (P34913 1-555): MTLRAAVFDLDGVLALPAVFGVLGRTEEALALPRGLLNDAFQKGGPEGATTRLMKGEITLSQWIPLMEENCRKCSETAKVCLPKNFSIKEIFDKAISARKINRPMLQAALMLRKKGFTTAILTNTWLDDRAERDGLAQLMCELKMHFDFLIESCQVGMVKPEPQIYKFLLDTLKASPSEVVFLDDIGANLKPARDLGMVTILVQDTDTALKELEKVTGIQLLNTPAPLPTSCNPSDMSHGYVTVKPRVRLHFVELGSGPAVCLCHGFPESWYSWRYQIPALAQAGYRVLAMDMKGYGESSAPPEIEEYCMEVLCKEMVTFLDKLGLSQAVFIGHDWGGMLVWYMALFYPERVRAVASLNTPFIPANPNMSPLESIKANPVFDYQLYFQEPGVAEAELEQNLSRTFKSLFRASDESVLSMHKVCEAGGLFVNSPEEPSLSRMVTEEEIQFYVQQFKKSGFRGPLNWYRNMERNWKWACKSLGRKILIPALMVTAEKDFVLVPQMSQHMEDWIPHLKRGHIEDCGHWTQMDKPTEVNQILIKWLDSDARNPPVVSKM
Description: Briefly, recombinant human sEH [1 nM in sodium phosphate buffer (0.1 M, pH = 7.4, 0.1 mg/mL BSA)] was incubated with each analyte (0.1 < [I]final < 10,000 nM) at 30°C for 5 min. Then, the reaction was started with the addition to CMNPC ([S]final = 5 μM). The reaction was monitored kinetically for 10 min at 30°C. The formation of the fluorescent product 6-methoxynaphthaldehyde (λexcitation = 330 nm, λemission = 465 nm, 30°C) was measured every 30 s. IC50 values were determined by regression of the remaining activity in function of the inhibitor concentrations. Assays were run in triplicate and IC50 values are the averages of three replicates.

[1] = Blood pharmacokinetics of TPPU and its metabolites after single oral dose in rats; format: in vivo
Description: (§1) Healthy male rats (Sprague Dawley, n = 4) were housed in temperature-controlled housing with ad libitum standard chow and drinking water. Each rat received TPPU (dissolved in 0.5 mL PEG400) at a dose of 10 mg/kg by oral gavage in order to generate significant amounts of metabolites while corresponding to previous efficacious concentration doses. Both blood and urine samples were collected. Blood samples (10 μL) at time points of 0 (before dosing), 0.25, 0.5, 1, 2, 4, 8, 12, 24, 48, and 72 h post dose were collected from the tail vein. Collected blood samples were transferred to Eppendorf tubes containing 90 μL of EDTA solution (0.1% EDTA and 0.1% acetic acid) and were immediately shaken to avoid blood coagulation. The urine and feces samples were passively collected at the time points of 8, 12, 24, 48, and 72 h post dose. TAPU (10 μL) of 1 μM in methanol was added in each blood and urine sample as an internal standard solution. The blood sample extraction was performed with 200 μL ethyl acetate by liquid-liquid extraction. The representative urine samples were subjected to protein precipitation prior to analysis of TPPU and Phase I metabolites. Briefly, urine (10 μL) was treated with 50 μL acetonitrile. After vortex mixing and centrifugation, the supernatant was collected. The feces samples (50–100 mg) were extracted using 600 μL extraction solution (MeOH: EA = 1:1). The mixtures were kept at −20°C overnight to give efficient extraction of TPPU and its metabolites. On day 2, after vortex mixing and centrifugation, the supernatant was collected. The remaining residue was extracted an additional time with 300 μL extraction solution, and the supernatant was combined after centrifugation. The collected supernatants were dried using a speed vacuum concentrator and reconstituted in 50 μL of 100 nM CUDA solution in methanol. In addition, urine (10 μL) was diluted with water (50 μL) and then subjected to analysis of glucuronide or sulfate conjugates.
(§2) LC-MS/MS analysis was conducted on an Agilent SL 1200 series LC system (Agilent, Palo Alto, CA) connected to a 4,000 Qtrap mass spectrometer (Applied Biosystems Instrument Corporation, Foster City, CA) with Turbo V ion source. Liquid chromatography was performed on a Kinetex® C18 column (100 × 2.1 mm, 1.7 μm). Three μL solution was injected onto the column held at 45°C for analysis. Mobile phase A and B were water with 0.1% acetic acid and acetonitrile with 0.1% acetic acid, respectively. The LC flow rate was 300 μL/min.
(§3) The mass spectrometer was operated in both negative and positive modes. Three different scan types were employed to perform mass spectrometry analysis, including product ion scan, precursor ion scan (optimized parameters in Table S4) and MRM scan (optimized parameters in Table S5).

[2] = Urine levels of TPPU and metabolites after single oral dose in rats; format: in vivo; settings: rat, single oral dose 10 mg/kg TPPU; for Cmax: male, Sprague Dawley, urine
Description: as §1, §2, §3

[3] = Feces levels of TPPU and metabolites after single oral dose in rats; format: in vivo; settings: rat, single oral dose 10 mg/kg TPPU; for concentration at 8 h: 8h post dose; for concentration at 8 h / concentration at 12 h / concentration at 24 h / concentration at 48 h / concentration at 72 h: n = 3; for concentration at 12 h: 12h post dose; for concentration at 24 h: 24h post dose; for concentration at 48 h: 48h post dose; for concentration at 72 h: 72h post dose
[4] = In vitro metabolism of TPPU in liver S9 fractions; format: in vitro ADME, human, monkey, dog, rat, mouse
Description: The in vitro study of TPPU metabolism was conducted following previous methods as described (Watanabe and Hammock, [2001]). Briefly, 1 μL of TPPU (1 mM in DMSO; [TPPU]final = 10 μM) was mixed with 94 μL of diluted liver S9 fractions (final, 0.05 mg protein/mL) from human, monkey, dog, rat, and mouse and incubations were conducted in a 10 mL glass vial. After 5 min preincubation at 37°C, the reaction was initiated by adding 5 μL of NADPH regeneration solution. The NADPH regeneration solution was prepared by mixing 50 μL of NADP^+ (100 mM), 50 μL of G6P (500 mM), 50 μL of G6PDH (100 Unit/mL), and 100 μL of sodium phosphate buffer. Incubation without NADPH regeneration solution was used as control. Reactions were kept for 2 h and terminated by addition of 100 μL of ice-cold methanol containing CUDA (200 nM) as an internal standard. The mixture was followed by vigorous mixing for 2 min and centrifuging at 10,000^*g for 10 min. Each supernatant was transferred to an HPLC vial and kept under 4°C until LC-MS analysis.
as §2

[5] = Urine levels of TPPU and metabolites after single oral dose in rats; format: in vivo; settings: male, Sprague Dawley, rat, single oral dose 10 mg/kg TPPU, n = 3; for concentration at 8 h: 8h post dose; for concentration at 12 h: 12h post dose; for concentration at 24 h: 24h post dose; for concentration at 48 h: 48h post dose; for concentration at 72 h: 72h post dose

Cmax [2] [ng/mL]	time of Cmax in urine [2] [h]	concentration at 8 h ([3]; male, Sprague Dawley, feces) [ng/mL]	concentration at 12 h ([3]; male, Sprague Dawley, feces) [ng/mL]	concentration at 24 h ([3]; male, Sprague Dawley, feces) [ng/mL]	concentration at 48 h ([3]; male, Sprague Dawley, feces) [ng/mL]	concentration at 72 h ([3]; male, Sprague Dawley, feces) [ng/mL]	concentration at 8 h [5] [ng/mL]	concentration at 12 h [5] [ng/mL]	concentration at 24 h [5] [ng/mL]	concentration at 48 h [5] [ng/mL]	concentration at 72 h [5] [ng/mL]	Compound	further results
12000	12	3.7	5.7	1.1	8.8	4.4	8	1.2	5.6	3.6	2.1	CC(O)C(=O)N1CCC(NC(=O)Nc2ccc(OC(F)(F)F)cc2)CC1 (centres unmarked) [Compound M1, 1-(1-(2-hydroxypropanoyl)piperidin-4-yl)-3-(4-(trifluoromethoxy)phenyl)urea]	IC50 (recombinant human sEH; CMNPC fluorescent assay, recombinant human sEH 1 nM, 30°C, average of three replicates, read-out: HsEH IC50): 3 ± 0.5 nM; fold more potent than M2 toward human sEH (recombinant human sEH; ratio of IC50 values, versus M2): ~ 5 fold; half-life ([1]; male, Sprague Dawley, rat, whole blood, po, 10 mg/kg, oral gavage 10 mg/kg, n = 4, read-out: T1/2 (half-life) (converted)): ~20 h; T1/2 (half-life) ([1]; rat blood, oral gavage 10 mg/kg, n = 4, 10 mg/kg): 20 ± 3 h; share of the total TPPU-related exposure in blood ([1]; rat blood, single oral dose of TPPU, over 72 h): ~ 9.6%; formation of metabolite in liver S9 fractions ([4]; with NADPH regeneration system, rat, mouse, dog, monkey, human, 2 h): found in all species tested; formation of metabolite in liver S9 fractions in the absence of a NADPH generation system ([4]; without NADPH, liver S9 fractions (Figure S1: human)): failed to be detected
5700	8	1.8	2.4	1.9	7	1.5	5.7	5.1	1.6	4.6	1.1	CCC(=O)N1CCC(NC(=O)Nc2ccc(OC(F)(F)F)cc2)CC1 [TPPU, 1-(1-propionylpiperidin-4-yl)-3-(4-(trifluoromethoxy)phenyl)urea]	share of the TPPU nucleus in the blood ([1]; rat blood, oral 10 mg/kg TPPU): over 90%; Cmax ([3]; male, Sprague Dawley, feces): 24000 ng/mL; time of Cmax in feces [3]: 12 h; TPPU remaining after incubation with liver S9 fractions ([4]; 2 h of incubation, TPPU 10 μM, 0.05 mg protein/mL): over 90%
